{
  "source": "patent US20230121689A1",
  "about": "“CEPHALOSPORIN ANTIBACTERIAL COMPOUND AND PHARMACEUTICAL APPLICATION THEREOF” (priority 2020, published 2023)",
  "format_in_all_cases": "cell-based",
  "key": {"[1]": {"system": "Carbapenem-resistant Acinetobacter baumannii (CRAB)", "test": "Test Example 1: antibacterial activity test (MIC)", "protocol": "(§1) The test compounds were diluted in a gradient and used for an MIC assay on the test strains. The test compounds at an initial assay concentration of 32 μg/mL were diluted in a 2-fold gradient (11 concentration points in total), and two duplicate wells were set for each concentration. Additional wells without drug dosing were set as growth controls. The minimum inhibitory concentration (MIC) assay was performed with reference to the Clinical and Laboratory Standards Institute (CLSI) guidelines.\n(§2) After the frozen strains were subcultured, a single colony was picked and re-suspended in normal saline or sterile water in a tube. The bacterial suspension was vortexed and adjusted to 0.5 McF using a spectrophotometer at the wavelength of 530 nm. The bacterial solution was taken by a pipette, added to a culture medium, diluted and mixed well, and seeded to a bacterial assay plate.\n(§3) The 96-well plate was affixed with a disposable sealing film, shaken and mixed well, and visually observed using a plate reader. The minimum concentration of the compounds capable of inhibiting the growth of bacteria was defined as MIC as compared to the growth controls."}, "[2]": {"system": "Carbapenem-resistant Enterobacteriaceae (CRE)", "test": "Test Example 1: antibacterial activity test (MIC)", "protocol": "as §1, §2, §3"}, "[3]": {"system": "Carbapenem-resistant Pseudomonas aeruginosa (CRPA)", "test": "Test Example 1: antibacterial activity test (MIC)", "protocol": "as §1, §2, §3"}, "[4]": {"system": "Carbapenem-resistant Acinetobacter baumannii (CRAB, Acinetobacter baumannii)", "test": "Test Example 2: antibacterial activity test (MIC)", "conditions": "ID-CAMHB, read-out: ID-CAMHB, MIC", "protocol": "(§4) 1. The test compounds were dissolved in sterile normal saline, vortexed for uniformly mixing, and diluted in a 2-fold dilution with the sterile normal saline (11 concentration points in total). The test concentration range was 32-0.031 μg/mL, and two duplicate wells were set for each concentration. Additional wells without drug dosing were set as growth controls. 2. 4 μL of the diluent was added to 196 μL of the bacterial suspension in a 96-well plate (the bacterial count in the bacterial suspension was 2-8×10^5 colony forming units/mL). 3.\n(§5) The minimum inhibitory concentration (MIC) assay was performed with reference to the Clinical and Laboratory Standards Institute (CLSI) guidelines."}, "[5]": {"system": "Carbapenem-resistant Enterobacteriaceae (CRE, Klebsiella pneumoniae)", "test": "Test Example 2: antibacterial activity test (MIC)", "conditions": "ID-CAMHB, read-out: ID-CAMHB, MIC", "protocol": "as §4, §5"}, "[6]": {"system": "Carbapenem-resistant Pseudomonas aeruginosa (CRPA, Pseudomonas aeruginosa)", "test": "Test Example 2: antibacterial activity test (MIC)", "conditions": "ID-CAMHB, read-out: ID-CAMHB, MIC", "protocol": "as §4, §5"}, "[7]": {"system": "Control Strain Pseudomonas aeruginosa ATCC 27853", "test": "Test Example 2: antibacterial activity test (MIC)", "conditions": "ATCC27853, ID-CAMHB, ATCC 27853, read-out: ID-CAMHB, MIC", "protocol": "as §4, §5"}, "[8]": {"system": "Control strain Escherichia coli ATCC 25922", "test": "Test Example 2: antibacterial activity test (MIC)", "conditions": "ATCC25922, ID-CAMHB, ATCC 25922, read-out: ID-CAMHB, MIC", "protocol": "as §4, §5"}},
  "note": "Read-outs that look alike come from different tables or passages of the source.",
  "data": [
    {"molecule": "CC(C)(O/N=C(\\C(=O)N[C@@H]1C(=O)N2C(C(=O)[O-])=C(C[N+]3(CC4(NC(=O)c5ccc(O)c(O)c5Cl)CC4)CCCC3)CS[C@H]12)c1csc(N)n1)C(=O)O", "note": "[Compound 2]", "values": [
      {"measurement": "MIC", "setting": "[1]; CRAB strain No. 100085", "result": 0.5, "unit": "µg/mL"},
      {"measurement": "MIC", "setting": "[1]; CRAB strain No. 100333", "result": 2, "unit": "µg/mL"},
      {"measurement": "MIC", "setting": "[1]; CRAB strain No. 110440", "result": 3, "unit": "µg/mL"},
      {"measurement": "MIC", "setting": "[1]; CRAB strain No. 110477", "result": 2, "unit": "µg/mL"},
      {"measurement": "MIC", "setting": "[1]; CRAB strain No. 110517", "result": 0.5, "unit": "µg/mL"},
      {"measurement": "MIC", "setting": "[2]; CRE strain No. 100109", "result": 1, "unit": "µg/mL"},
      {"measurement": "MIC", "setting": "[2]; CRE strain No. 100186", "result": 1.5, "unit": "µg/mL"},
      {"measurement": "MIC", "setting": "[2]; CRE strain No. 110502", "result": 6, "unit": "µg/mL"},
      {"measurement": "MIC", "setting": "[2]; CRE strain No. 110525", "result": 2, "unit": "µg/mL"},
      {"measurement": "MIC", "setting": "[2]; CRE strain No. 311277", "result": 1.5, "unit": "µg/mL"},
      {"measurement": "MIC", "setting": "[3]; CRPA strain No. 100110", "result": 0.031, "unit": "µg/mL"},
      {"measurement": "MIC", "setting": "[3]; CRPA strain No. 110163", "result": 0.5, "unit": "µg/mL"},
      {"measurement": "MIC", "setting": "[3]; CRPA strain No. 110224", "result": 0.75, "unit": "µg/mL"},
      {"measurement": "MIC", "setting": "[3]; CRPA strain No. 110358", "result": 1, "unit": "µg/mL"},
      {"measurement": "MIC", "setting": "[3]; CRPA strain No. 110390", "result": 0.5, "unit": "µg/mL"},
      {"measurement": "MIC", "setting": "[4]; FDA-CDC AR-BANK #0036 (strB, OXA-65, OXA-24, strA, sul2)", "result": 0.5, "unit": "µg/mL"},
      {"measurement": "MIC", "setting": "[4]; FDA-CDC AR-BANK #0052 (OXA-58, OXA-100, sul2)", "result": 0.0625, "unit": "µg/mL"},
      {"measurement": "MIC", "setting": "[4]; FDA-CDC AR-BANK #0063 (OXA-23, OXA-65, OXA-24, sul2)", "result": 16, "unit": "µg/mL"},
      {"measurement": "MIC", "setting": "[4]; FDA-CDC AR-BANK #0070 (OXA-58, OXA-100, sul2)", "result": 0.0625, "unit": "µg/mL"},
      {"measurement": "MIC", "setting": "[4]; FDA-CDC AR-BANK #0101 (strB, OXA-65, OXA-24, strA, sul2)", "result": 0.5, "unit": "µg/mL"},
      {"measurement": "MIC", "setting": "[5]; FDA-CDC AR-BANK #0361 (TEM-1; SHV-12; KPC-2)", "result": 1, "unit": "µg/mL"},
      {"measurement": "MIC", "setting": "[5]; FDA-CDC AR-BANK #0362 (TEM-1; SHV-11; KPC-2)", "result": 0.5, "unit": "µg/mL"},
      {"measurement": "MIC", "setting": "[5]; FDA-CDC AR-BANK #0363 (TEM-1; SHV-12; KPC-2)", "result": 0.5, "unit": "µg/mL"},
      {"measurement": "MIC", "setting": "[5]; FDA-CDC AR-BANK #0438 (aph(3′)-Ia, dfrA12, KPC-3, OmpK35, oqxA, oqxB, SHV-11)", "result": 1, "unit": "µg/mL"},
      {"measurement": "MIC", "setting": "[5]; FDA-CDC AR-BANK #0453 (KPC-3, OmpK35, oqxA, oqxB, SHV-11, TEM-1B)", "result": 2, "unit": "µg/mL"},
      {"measurement": "MIC", "setting": "[6]; FDA-CDC AR-BANK #0439 (aac(6′)-Il, aadA1b, BCR1, IMP-18, OXA-50)", "result": 0.5, "unit": "µg/mL"},
      {"measurement": "MIC", "setting": "[6]; FDA-CDC AR-BANK #0441 (KPC-2)", "result": 2, "unit": "µg/mL"},
      {"measurement": "MIC", "setting": "[6]; FDA-CDC AR-BANK #0444 (aac(6′)-Il, dfrB5, OXA-4, tet(G), VIM-2)", "result": 4, "unit": "µg/mL"},
      {"measurement": "MIC", "setting": "[6]; FDA-CDC AR-BANK #0457 (aadA6, VIM-2)", "result": 0.125, "unit": "µg/mL"},
      {"measurement": "MIC", "setting": "[7]", "result": 0.0625, "unit": "µg/mL"},
      {"measurement": "MIC", "setting": "[8]", "result": 0.125, "unit": "µg/mL"}
    ]}
  ]
}
